Measurements published in ChEMBL document CHEMBL4184249, “Structural development of tetrachlorophthalimides as liver X receptor β (LXRβ)-selective agonists with improved aqueous solubility” (Bioorg Med Chem Lett, 2018).
Activity calls are given as the source filed them. The rule behind the calls is not given here.

Key:
Format in all cases: cell-based
[1] = target: T1, Oxysterols receptor LXR-alpha (Homo sapiens) (UniProt Q13133); experiment: Agonist activity at human LXRalpha expressed in HEK293 cells co-expressing CMX-beta-galactosidase at 30 uM incubated for 16 hrs by luciferase reporter gene assay
T1 sequence (whole entry): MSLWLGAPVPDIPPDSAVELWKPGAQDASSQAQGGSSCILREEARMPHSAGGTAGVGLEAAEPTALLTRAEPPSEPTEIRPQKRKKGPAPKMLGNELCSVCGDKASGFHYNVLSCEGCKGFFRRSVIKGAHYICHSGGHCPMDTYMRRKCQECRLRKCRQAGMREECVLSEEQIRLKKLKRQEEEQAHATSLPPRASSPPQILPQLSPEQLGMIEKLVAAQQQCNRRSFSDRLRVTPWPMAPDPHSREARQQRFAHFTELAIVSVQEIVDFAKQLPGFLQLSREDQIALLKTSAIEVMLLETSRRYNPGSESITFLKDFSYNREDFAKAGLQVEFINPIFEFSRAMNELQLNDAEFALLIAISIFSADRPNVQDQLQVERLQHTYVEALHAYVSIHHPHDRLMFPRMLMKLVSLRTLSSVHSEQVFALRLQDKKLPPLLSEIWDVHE

[2] = target: T2, Oxysterols receptor LXR-beta (Homo sapiens) (UniProt P55055); experiment: Agonist activity at human LXRbeta expressed in HEK293 cells co-expressing CMX-beta-galactosidase incubated for 16 hrs by luciferase reporter gene assay relative to T0901317
T2 sequence (whole entry): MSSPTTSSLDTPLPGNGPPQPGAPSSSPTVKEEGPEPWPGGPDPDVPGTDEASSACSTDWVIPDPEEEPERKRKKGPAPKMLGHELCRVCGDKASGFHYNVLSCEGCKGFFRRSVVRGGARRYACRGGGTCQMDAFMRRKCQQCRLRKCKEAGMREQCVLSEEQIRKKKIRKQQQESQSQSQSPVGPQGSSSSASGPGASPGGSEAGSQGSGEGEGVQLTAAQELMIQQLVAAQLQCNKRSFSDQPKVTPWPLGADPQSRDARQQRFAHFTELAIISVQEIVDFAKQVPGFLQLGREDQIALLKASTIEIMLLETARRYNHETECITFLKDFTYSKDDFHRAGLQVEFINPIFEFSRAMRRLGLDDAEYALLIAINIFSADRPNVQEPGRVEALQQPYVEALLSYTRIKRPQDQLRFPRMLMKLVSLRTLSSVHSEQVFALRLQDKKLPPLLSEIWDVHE

[3] = target: T3, Peroxisome proliferator-activated receptor alpha (Homo sapiens) (UniProt Q07869); experiment: Agonist activity at GAL4-tagged PPARalpha (unknown origin) expressed in HEK293 cells co-expressing CMX-beta-galactosidase at 0.3 to 30 uM incubated for 16 hrs by luciferase reporter gene assay
T3 sequence (whole entry): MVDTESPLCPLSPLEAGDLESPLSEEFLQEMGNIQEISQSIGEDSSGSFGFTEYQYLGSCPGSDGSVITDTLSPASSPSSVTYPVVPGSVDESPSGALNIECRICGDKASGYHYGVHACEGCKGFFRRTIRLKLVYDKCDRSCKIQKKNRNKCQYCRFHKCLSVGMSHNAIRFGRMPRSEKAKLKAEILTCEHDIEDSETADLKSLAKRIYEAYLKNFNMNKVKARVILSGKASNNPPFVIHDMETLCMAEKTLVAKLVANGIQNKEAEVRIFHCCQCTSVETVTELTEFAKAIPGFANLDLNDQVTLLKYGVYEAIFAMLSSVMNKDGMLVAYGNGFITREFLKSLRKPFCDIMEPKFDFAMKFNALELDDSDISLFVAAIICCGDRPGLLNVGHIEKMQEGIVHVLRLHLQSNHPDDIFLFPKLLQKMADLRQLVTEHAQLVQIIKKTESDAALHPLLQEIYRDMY

[4] = target: T4, Retinoic acid receptor gamma (Homo sapiens) (UniProt P13631); experiment: Agonist activity at GAL4-tagged RARgamma (unknown origin) expressed in HEK293 cells co-expressing CMX-beta-galactosidase at 0.3 to 30 uM incubated for 16 hrs by luciferase reporter gene assay
T4 sequence (whole entry): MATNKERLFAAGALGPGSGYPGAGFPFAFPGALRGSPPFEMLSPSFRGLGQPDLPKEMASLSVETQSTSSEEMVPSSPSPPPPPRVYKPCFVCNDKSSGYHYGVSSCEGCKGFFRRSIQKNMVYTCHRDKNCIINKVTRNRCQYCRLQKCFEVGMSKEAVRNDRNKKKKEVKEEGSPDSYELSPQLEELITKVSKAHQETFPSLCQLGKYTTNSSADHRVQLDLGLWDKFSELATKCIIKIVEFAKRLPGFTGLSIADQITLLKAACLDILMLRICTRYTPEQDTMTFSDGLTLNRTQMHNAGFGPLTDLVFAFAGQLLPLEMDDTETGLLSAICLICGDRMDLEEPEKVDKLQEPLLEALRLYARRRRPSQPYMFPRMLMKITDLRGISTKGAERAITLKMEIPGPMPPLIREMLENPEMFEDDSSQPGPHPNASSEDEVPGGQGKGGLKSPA

[5] = target: T5, Retinoic acid receptor RXR-alpha (Homo sapiens) (UniProt P19793); experiment: Agonist activity at GAL4-tagged RXRalpha (unknown origin) expressed in HEK293 cells co-expressing CMX-beta-galactosidase at 0.3 to 30 uM incubated for 16 hrs by luciferase reporter gene assay
T5 sequence (whole entry): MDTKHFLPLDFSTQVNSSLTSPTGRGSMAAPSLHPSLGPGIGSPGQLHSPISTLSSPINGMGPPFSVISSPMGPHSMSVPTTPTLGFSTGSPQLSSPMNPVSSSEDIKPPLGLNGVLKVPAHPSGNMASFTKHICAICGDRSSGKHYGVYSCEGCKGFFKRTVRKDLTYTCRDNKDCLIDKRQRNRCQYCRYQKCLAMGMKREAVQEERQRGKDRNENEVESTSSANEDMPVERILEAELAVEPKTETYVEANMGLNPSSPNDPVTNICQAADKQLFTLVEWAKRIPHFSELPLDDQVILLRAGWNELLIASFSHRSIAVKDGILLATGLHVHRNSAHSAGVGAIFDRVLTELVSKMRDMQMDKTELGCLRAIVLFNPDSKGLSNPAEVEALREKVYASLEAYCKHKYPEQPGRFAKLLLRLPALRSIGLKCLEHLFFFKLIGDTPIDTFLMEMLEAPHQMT

[6] = target: T2, Oxysterols receptor LXR-beta (Homo sapiens); experiment: Agonist activity at LXRbeta in human THP1 cells assessed as increase in ABCA1 mRNA expression at 1 uM by real-time quantitative RT-PCR method

- Activity [1]: inactive
- Efficacy [2]: 149%
- Activity [3]: inactive
- Activity [4]: inactive
- Activity [5]: inactive
- Activity [6]: Active
Compound: O=C1c2c(Cl)c(Cl)c(Cl)c(Cl)c2C(=O)N1c1ccccc1/C=C/c1cccs1
